{"source": "patent US11578078B2", "about": "“Heterocyclic RIP1 inhibitory compounds” (Rigel Pharmaceuticals, Inc., priority 2019, dated 2023)", "assay": "in vivo pharmacokinetics, plasma and brain exposure", "parameters": "species or system rodents"}
{"smiles": "CN1C(=O)[C@@H](NC(=O)c2nn(Cc3ccccc3)cc2F)COc2ccc(N3CCC4(CCOCC4)C3)cc21", "note": "[Compound I-1, (S)-1-benzyl-4-fluoro-N-(5-methyl-4-oxo-7-(8-oxa-2-azaspiro[4.5]decan-2-yl)-2,3,4,5-tetrahydrobenzo[b][1,4]oxazepin-3-yl)-1H-pyrazole-3-carboxamide]", "values": [{"measurement": "Ratio (Brain/Plasma)", "setting": "brain AUC0-6 / plasma AUC0-6", "value": 0.46}, {"measurement": "PLASMA CI", "value": 16.4}]}
{"smiles": "CN1C(=O)[C@@H](NC(=O)c2nn(Cc3ccccc3)cc2F)COc2ccc(N3CC4(CCOCC4)C3)cc21", "note": "[Compound I-2, (S)-1-benzyl-4-fluoro-N-(5-methyl-4-oxo-7-(7-oxa-2-azaspiro[3.5]nonan-2-yl)-2,3,4,5-tetrahydrobenzo[b][1,4]oxazepin-3-yl)-1H-pyrazole-3-carboxamide]", "values": [{"measurement": "BRAIN AUC0-6", "setting": "brain", "value": 157}, {"measurement": "PLASMA CI", "value": 57.7}, {"measurement": "Kp", "setting": "rodents, brain AUC0-6 / plasma AUC0-6, read-out: Ratio (Brain/Plasma)", "value": 0.56}]}
{"smiles": "CN1C(=O)[C@@H](NC(=O)n2cc(Cc3ccc(F)cc3)cn2)COc2ccc(N3CC4(CCOCC4)C3)cc21", "note": "[Compound I-3, (S)-4-(4-fluorobenzyl)-N-(5-methyl-4-oxo-7-(7-oxa-2-azaspiro[3.5]nonan-2-yl)-2,3,4,5-tetrahydrobenzo[b][1,4]oxazepin-3-yl)-1H-pyrazole-1-carboxamide]", "values": [{"measurement": "Ratio (Brain/Plasma)", "setting": "brain AUC0-6 / plasma AUC0-6", "value": 0.93}, {"measurement": "PLASMA CI", "value": 19.0}]}
